Measured values as given in paper PMC3436077 (DARU Journal of Pharmaceutical Sciences, 2011).

Tests used:
[1] = mice; cited from earlier work
[2] = test system: P-glycoprotein (PGP); assay: Apical-to-basal transwell transport across MDCK II cell monolayer; settings: dog, MDCK, M6G permeability in the presence of cyclosporine, MDCK II cells, cyclosporine (10 µM), PGP inhibitor
[3] = as above; settings: dog, MDCK
[4] = test system: MDCK II cells; assay: as above

In the case of `CN1CC[C@]23c4c5ccc(O)c4O[C@H]2[C@@H](O[C@@H]2O[C@H](C(=O)O)[C@@H](O)[C@H](O)[C@H]2O)C=C[C@H]3[C@H]1C5` [M6G, Morphine-6-glucuronide], the “Change of M6G brain uptake in the presence of digoxin” value [1] is listed as “threefold reduction”, the Papp at 100 min [2] is listed as 3.16 ± 0.01 ×10⁻⁶ cm/s and the Papp at 100 min ([3]; M6G permeability in the presence of d-glucose, d-glucose 5µ M, MDCK II, P < 0.05) is listed as 2.06 ± 0.02 ×10⁻⁶ cm/s. The Papp at 100 min ([3]; M6G permeability in the presence of digoxin, digoxin 5µ M, MDCK II, P < 0.05) was 2.64 ± 0.11 ×10⁻⁶ cm/s, the Papp at 100 min ([3]; M6G permeability in the presence of probenecid, probenecid 10µ M, MDCK II, P > 0.05) was 2.95 ± 0.06 ×10⁻⁶ cm/s and the Papp at 100 min, 100 µg/ml ([3]; Permeability ± SD in the presence of morphine, M6G 100 µg/ml + morphine 61,820 ng/ml, MDCK II) was 3.31 ± 0.14 ×10⁻⁶ cm/s. The Papp at 100 min, 100 µg/ml ([3]; Permeability ± SD, M6G 100 µg/ml alone, MDCK II) was 2.92 ± 0.02 ×10⁻⁶ cm/s, the Papp at 100 min ([3]; Permeability, MDCK II cells, A→B, 100 min, M6G 100 µg/ml, sucrose 8,000,000 DPM/ml, N=4) was 2.94 ± 0.03 ×10⁻⁶ cm/s and the “M6G apical to basal movement relative to morphine (times lower)” value ([4]; morphine value from earlier paper) was 10 times. For the same molecule, the “Morphine in apical and basal chambers (de-glucuronidation of M6G)” value ([4]; t= 100 min, sensitive morphine assay) was “not a significant or detectable morphine”.
